# Results published in patent US8563601B2, “Method of managing broncho-constrictive condition” (Indus Biotech Private Limited, priority 2010, dated 2013).
# Columns and labels:
# [1] = tested on: ovalbumin-induced broncho-constriction in sensitized guinea pigs; test: In-vivo pulmonary antigen-induced sensitization study (intratracheal pressure); set-up: species or system Male Duncan Hartley derived guinea pigs; details: about 30 mg/kg
# Procedure: Prophylactic activity of instant composition against antigen-induced broncho-constriction is tested in sensitized guinea pigs. […] One hour after pretreatment, the guinea pigs are sensitized with intraperitoneal injection of ovalbumin (0.5 μg). A cocktail of Indomethacin (about 10 mg/kg), Mepyramine (about 2 mg/kg) and Propanolol (about 100 mg/kg) is injected about 10 mins before sensitization in order to block other mediators of broncho-blockade. Sensitized animals are anesthetized and artificially ventilated.
# [2] = Heart rate and blood pressure in the pulmonary antigen-induced sensitization study; type: in vivo, Male Duncan Hartley derived guinea pigs; details: guinea pigs
# Procedure: Prophylactic activity of instant composition against antigen-induced broncho-constriction is tested in sensitized guinea pigs. Male Duncan Hartley derived guinea pigs (400±50 g) are pretreated with instant composition at dose of about 100 mg/kg of body weight of the subject, administered orally. One hour after pretreatment, the guinea pigs are sensitized with intraperitoneal injection of ovalbumin (0.5 μg). A cocktail of Indomethacin (about 10 mg/kg), Mepyramine (about 2 mg/kg) and Propanolol (about 100 mg/kg) is injected about 10 mins before sensitization in order to block other mediators of broncho-blockade. Sensitized animals are anesthetized and artificially ventilated. […]
smiles,measurement,setting,value
O=C1CCN(c2ccccc2)N1 [Phenidone],ΔITP Before Ovalbumin,[1]; n = 5,0 cm H2O
same,ΔITP After Ovalbumin,"[1]; n = 5, vehicle control 29.3 ± 2.2",2.3 ± 0.3 cm H2O
same,effect on blood pressure,[2]; 5 minutes after administration,reduced blood pressure
same,Blood Pressure,"[2]; measured 5 mins after administration, n = 5, vehicle control 49.4 ± 4.0",34.4 ± 1.9 mm Hg
same,Heart Rate,"[2]; measured 5 mins after administration, n = 5, vehicle control 171.2 ± 3.4",162.4 ± 4.7 beats/minute
